# In US8163788B2, “Low-molecular inhibitors of cytohesin-family guanine nucleotide exchange factors” (Rheinische Friedrich-Wilhelms Universitat Bonn, priority 2004, dated 2012):
# Assays:
# Type in all cases: cell-based
# cytohesin-2 = test: luciferase assay in HeLa-cells (serum response element activation, MAPK path via cytohesin-2); conditions: compounds 1 μM to 50 μM, read-out: IC50 (luciferase signal)
# Procedure: The IC50 value was determined in comparison to the LC50 value in a luciferase assay in HeLa-cells, corresponding to the test conditions described in Theis, M. G. et al., Proc Natl Acad Sci USA, 101, 11221-26 (2004). The stimulation of receptor tyrosine kinases by means of growth factors contained in fetal calf serum activates the MAPK path via cytohesin-2 and results in an activation of the serum response element. This activation manifests itself in the quantity of luciferase produced in the cells.
# Compounds (9), (10), (11), (12), (14) and (19) were each added in concentrations of 1 μM to 50 μM to 6.5×10^4 HeLa-cells.
# The IC50 value was determined from the plotting of the concentration of the compound against the intensity of the luciferase signal.
# [1] = system: human peripheral blood cells (PBL); test: adhesion of human peripheral blood cells (PBL) to ICAM-1 after stimulation with OKT3 or PMA; conditions: FIG. 1
# Source text: Human peripheral blood cells (PBL) were stimulated with agonists that activate a beta-2 integrin-dependent adhesion. In these primary human lymphocytes, the beta-2 integrin-dependent adhesion can be activated by cytohesins at the specific ligands ICAM-1.
# The agonists employed were the monoclonal antibody OKT3 (hybridome of ATCC, mAb OKT3 purified on protein A, according to standard methods from Current Protocols in Immunology, 5th Ed., Coligan et al., Edts, Wiley 2004) against the CD3 complex, a T-cell receptor and phorbolester (PMA), which non-physiologically activates intracellular signal cascades in human PBL including integrin-dependent adhesion while circumventing cytohesins.
# Cells from human blood were isolated according to standard methods (Current Protocols in Immunology, 5th Ed., 2004, Coligan et al., Edts, Wiley). Cell culture dishes coated with ICAM-1 were produced by means of recombinant ICAM-1-Fc fusion protein (Kolanus, W. et al., Cell 86, 233-42 (1996), Geiger, C. et al., EMBO J., 19, 2525-2536 (2000)). 300,000 human peripheral blood cells (PBL) were stimulated for 30 minutes with 2 μg/ml of OKT3 or 40 ng/ml of phorbolester (PMA) in Hank's BSS, (Gibco; composition (g/l): CaCl2x2H2O (0.185), KCl (0.4), KH2PO4 (0.06), MgCl2x6H2O (0.1), MgSO4x7H2O (0.1), NaCl (8.0), NaHCO3 (0.35), Na2HPO4 (0.048), D-glucose (1.0)), and placed for one hour in Hank's BSS onto the ICAM-1 coated cell culture dishes, whereby the agonists were not removed. Non-bound cells were removed by washing with Hank's BSS. The percentage of bound cells was determined by counting under a microscope using a standard counting grid.
# human dendritic cells = test: adhesion of dendritic cells to the substrate ICAM-1; conditions: 1 μM, 10 μM or 15 μM, 96 hours; stimulation with PMA or MEM-48; FIG. 4
# Procedure: Dendritic cells were produced in vitro by means of differentiation factors (IL-4 and GM-CSF) from blood monocytes that were isolated from peripheral mononuclear cells (PBMC) by Ficoll density gradient centrifugation from the human blood of anonymous donors.
# The blood was mixed at a ratio of 1:1 with PBS (KCl 0.2 g/l, KH2PO4 0.2 g/l, NaCl 8 g/l, Na2HPO4 1.15 g/l, PAA, Cölbe)/2 mM EDTA and layered onto half the volume of Ficoll. Centrifugation was carried out at 300×g, 30 minutes with no brake. After the centrifugation, a centered white band appeared which contained the PBMC. This was picked up with PBS/2 mM EDTA, filled up to 50 ml and subjected to several washing steps at 640×g, 500×g, 400×g, 300×g and 200×g. […]
# The quantitative analysis of the cell migration was carried out in modified Boyden chambers consisting of a 24-hole plate into which the Transwell® filters with a 5 μm pore size had been placed. […] [98.6° F.] and 5% CO2 in the incubator and subsequently, the number of cells that had migrated into the lower chamber in the direction of the chemokine was determined. […]
# Under corresponding conditions, the adhesion was determined after stimulation with phorbolester (PMA, 50 ng/ml, Sigma, Taufkirchen) or anti-beta-2 integrin antibodies MEM-48 (5 μg/ml, Vaclav Horeijsi, Czech Academy of Sciences Prague). […]
smiles,measurement,setting,value
COc1nc(-c2ccc3c(c2)OCO3)n(-c2ccc(NC(=O)CSc3ccccc3)cc2)n1 [Compound 9],IC50,cytohesin-2,12 ± 0.8 µM
same,IC50,"[1]; Homo sapiens, cells stimulated with OKT3, units given within the value, read-out: IC50 of inhibition of adhesion of PBL to ICAM-1",0.5 to 1 µM
same,effect on adhesion of PBL to ICAM-1,[1]; cells activated by phorbolester (PMA),not influenced
same,inhibition of the adhesion of dendritic cells on the substrate ICAM-1,human dendritic cells,concentration-dependent inhibition
